± gives the expanded uncertainty stated by the source.
Tests used:
[1] = Crystal; DTA
[2] = Molar enthalpy of transition or fusion; details: Crystal; DSC

SMILES | Normal melting temperature [1] | Molar enthalpy of transition or fusion [2]
COC(=O)C=Cc1ccc(O)cc1 [2-propenoic acid, 3-(4-hydroxyphenyl)-, methyl ester] | 137.56 ± 0.5 °C | 30.2 ± 0.86 kJ/mol
COC(=O)/C=C/c1cc(OC)c(O)c(OC)c1 [3,5-dimethoxy-4-hydroxy cinnamic acid methyl ester] | 88.64 ± 0.5 °C | 29.9 ± 0.85 kJ/mol
COC(=O)C=Cc1ccc(O)c(OC)c1 [methyl 3-(4-hydroxy-3-methoxyphenyl)-2-propenoate] | 62.56 ± 0.5 °C | 25.8 ± 0.75 kJ/mol

— the NIST ThermoML archive (doi:10.1021/je800596c)
